Tests used:
[1] = test system: SK-MEL-5; test: Antiproliferative activity against human SK-MEL-5 cells at 10^-5 M after 48 hrs by SRB assay; assay type: functional; conditions: SK-MEL-5, 48 h, read-out: GI
[2] = test system: M14; test: Antiproliferative activity against human M14 cells at 10^-5 M after 48 hrs by SRB assay; assay type: functional; conditions: M14, 48 h, read-out: GI
[3] = test system: NCI/ADR-RES; test: Antiproliferative activity against human NCI-ADR-RES cells at 10^-5 M after 48 hrs by SRB assay; assay type: functional; conditions: read-out: GI
[4] = test system: SF-268; test: Antiproliferative activity against human SF268 cells at 10^-5 M after 48 hrs by SRB assay; assay type: functional; conditions: SF-268, 48 h, read-out: GI
[5] = test system: K562; test: Antiproliferative activity against human K562 cells at 10^-5 M after 48 hrs by SRB assay; assay type: functional; conditions: K562, 48 h, read-out: GI
[6] = test system: NCI-H226; test: Antiproliferative activity against human NCI-H226 cells at 10^-5 M after 48 hrs by SRB assay; assay type: functional; conditions: NCI-H226, 48 h, read-out: GI
[7] = test system: LOX IMVI; test: Antiproliferative activity against human LOXIMVI cells at 10^-5 M after 48 hrs by SRB assay; assay type: functional; conditions: read-out: GI
[8] = test system: SK-MEL-2; test: Antiproliferative activity against human SK-MEL-2 cells at 10^-5 M after 48 hrs by SRB assay; assay type: functional; conditions: SK-MEL-2, 48 h, read-out: GI
[9] = test system: HOP-92; test: Antiproliferative activity against human HOP92 cells at 10^-5 M after 48 hrs by SRB assay; assay type: functional; conditions: HOP-92, 48 h, read-out: GI
[10] = test system: CAKI-1; test: Antiproliferative activity against human Caki1 cells at 10^-5 M after 48 hrs by SRB assay; assay type: functional; conditions: CAKI-1, 48 h, read-out: GI
[11] = test system: SK-OV-3; test: Antiproliferative activity against human SKOV3 cells at 10^-5 M after 48 hrs by SRB assay; assay type: functional; conditions: SK-OV-3, 48 h, read-out: GI
[12] = test system: SW-620; test: Antiproliferative activity against human SW620 cells at 10^-5 M after 48 hrs by SRB assay; assay type: functional; conditions: SW-620, 48 h, read-out: GI
[13] = test system: HOP-62; test: Antiproliferative activity against human HOP62 cells at 10^-5 M after 48 hrs by SRB assay; assay type: functional; conditions: HOP-62, 48 h, read-out: GI
[14] = test system: MDA-MB-231; test: Antiproliferative activity against human MDA-MB-231 cells at 10^-5 M after 48 hrs by SRB assay; assay type: functional; conditions: MDA-MB-231, 48 h, read-out: GI
[15] = test system: Malme-3M; test: Antiproliferative activity against human MALME-3M cells at 10^-5 M after 48 hrs by SRB assay; assay type: functional; conditions: read-out: GI
[16] = test system: CCRF-CEM; test: Antiproliferative activity against human CCRF-CEM cells at 10^-5 M after 48 hrs by SRB assay; assay type: functional; conditions: read-out: GI
[17] = test system: RPMI-8226; test: Antiproliferative activity against human RPMI8226 cells at 10^-5 M after 48 hrs by SRB assay; assay type: functional; conditions: RPMI-8226, 48 h, read-out: GI
[18] = test system: WI-38; test: Antiproliferative activity against human WI38 cells after 24 hrs by BrdU incorporation assay; assay type: cell-based; conditions: WI-38, 24 h
[19] = test system: A549; test: Antiproliferative activity against human A549 cells at 10^-5 M after 48 hrs by SRB assay; assay type: functional; conditions: A549, 48 h, read-out: GI
[20] = test system: SNB-19; test: Antiproliferative activity against human SNB19 cells at 10^-5 M after 48 hrs by SRB assay; assay type: functional; conditions: SNB-19, 48 h, read-out: GI
[21] = test system: SK-MEL-28; test: Antiproliferative activity against human SK-MEL-28 cells at 10^-5 M after 48 hrs by SRB assay; assay type: functional; conditions: SK-MEL-28, 48 h, read-out: GI
[22] = test system: A549; test: Antiproliferative activity against human A549 cells after 24 hrs by BrdU incorporation assay; assay type: functional, cell-based; conditions: A549, 24 h
[23] = test system: U-251; test: Antiproliferative activity against human U251 cells at 10^-5 M after 48 hrs by SRB assay; assay type: functional; conditions: U-251, 48 h, read-out: GI
[24] = test system: COLO 205; test: Antiproliferative activity against human COLO205 cells at 10^-5 M after 48 hrs by SRB assay; assay type: functional; conditions: COLO 205, 48 h, read-out: GI
[25] = test system: OVCAR-5; test: Antiproliferative activity against human OVCAR5 cells at 10^-5 M after 48 hrs by SRB assay; assay type: functional; conditions: OVCAR-5, 48 h, read-out: GI
[26] = test system: ACHN; test: Antiproliferative activity against human ACHN cells at 10^-5 M after 48 hrs by SRB assay; assay type: functional; conditions: read-out: GI
[27] = test system: DU-145; test: Antiproliferative activity against human DU145 cells at 10^-5 M after 48 hrs by SRB assay; assay type: functional; conditions: DU-145, 48 h, read-out: GI
[28] = test system: HCT-15; test: Antiproliferative activity against human HCT15 cells at 10^-5 M after 48 hrs by SRB assay; assay type: functional; conditions: HCT-15, 48 h, read-out: GI
[29] = test system: UO-31; test: Antiproliferative activity against human UO31 cells at 10^-5 M after 48 hrs by SRB assay; assay type: functional; conditions: UO-31, 48 h, read-out: GI
[30] = test system: NCI-H23; test: Antiproliferative activity against human NCI-H23 cells at 10^-5 M after 48 hrs by SRB assay; assay type: functional; conditions: NCI-H23, 48 h, read-out: GI
[31] = test system: OVCAR-3; test: Antiproliferative activity against human OVCAR3 cells at 10^-5 M after 48 hrs by SRB assay; assay type: functional; conditions: OVCAR-3, 48 h, read-out: GI
[32] = test system: EKVX; test: Antiproliferative activity against human EKVX cells at 10^-5 M after 48 hrs by SRB assay; assay type: functional; conditions: read-out: GI
[33] = test system: KM12; test: Antiproliferative activity against human KM12 cells at 10^-5 M after 48 hrs by SRB assay; assay type: functional; conditions: KM12, 48 h, read-out: GI
[34] = test system: PC-3; test: Antiproliferative activity against human PC3 cells at 10^-5 M after 48 hrs by SRB assay; assay type: functional; conditions: PC-3, 48 h, read-out: GI
[35] = test system: SR; test: Antiproliferative activity against human SR cells at 10^-5 M after 48 hrs by SRB assay; assay type: functional; conditions: read-out: GI
[36] = test system: SN12C; test: Antiproliferative activity against human SN12C cells at 10^-5 M after 48 hrs by SRB assay; assay type: functional; conditions: read-out: GI
[37] = test system: HT-29; test: Antiproliferative activity against human HT-29 cells at 10^-5 M after 48 hrs by SRB assay; assay type: functional; conditions: HT-29, 48 h, read-out: GI
[38] = test system: 786-0; test: Antiproliferative activity against human 786-0 cells at 10^-5 M after 48 hrs by SRB assay; assay type: functional; conditions: 786-0, 48 h, read-out: GI
[39] = test system: NCI-H460; test: Antiproliferative activity against human NCI-H460 cells at 10^-5 M after 48 hrs by SRB assay; assay type: functional; conditions: NCI-H460, 48 h, read-out: GI
[40] = test system: HCT-116; test: Antiproliferative activity against human HCT116 cells at 10^-5 M after 48 hrs by SRB assay; assay type: functional; conditions: HCT-116, 48 h, read-out: GI

| SMILES | inhibition of growth at 10 µM [1] [%] | inhibition of growth at 10 µM [2] [%] | inhibition of growth at 10 µM [3] [%] | inhibition of growth at 10 µM [4] [%] | inhibition of growth at 10 µM [5] [%] | inhibition of growth at 10 µM [6] [%] | inhibition of growth at 10 µM [7] [%] | inhibition of growth at 10 µM [8] [%] | inhibition of growth at 10 µM [9] [%] | inhibition of growth at 10 µM [10] [%] | inhibition of growth at 10 µM [11] [%] | inhibition of growth at 10 µM [12] [%] | inhibition of growth at 10 µM [13] [%] | inhibition of growth at 10 µM [14] [%] | inhibition of growth at 10 µM [15] [%] | inhibition of growth at 10 µM [16] [%] | inhibition of growth at 10 µM [17] [%] | IC50 [18] [µM] | inhibition of growth at 10 µM [19] [%] | inhibition of growth at 10 µM [20] [%] | also measured |
| --- | --- | --- | --- | --- | --- | --- | --- | --- | --- | --- | --- | --- | --- | --- | --- | --- | --- | --- | --- | --- | --- |
| O=C(CN1CCN(c2cc3c(cc2F)c(=O)c(C(=O)O)cn3C2CC2)CC1)Nc1ccc(Cl)cc1 | 28.9 | 18.2 | 0 | 8.82 | 31.9 | 19.9 | 38.9 | 5.16 | 21.1 | 32.8 | 36.6 | 0 | 28.3 | 39.8 | 8.25 | 23.6 | 27.8 | > 100 | 30.8 | 16.9 | inhibition of growth at 10 µM [21]: 12.9%; IC50 [22]: 14.8 µM; inhibition of growth at 10 µM [23]: 55.8%; inhibition of growth at 10 µM [24]: 0.11%; inhibition of growth at 10 µM [25]: 0%; inhibition of growth at 10 µM [26]: 46.8%; inhibition of growth at 10 µM [27]: 0.9%; inhibition of growth at 10 µM [28]: 17%; inhibition of growth at 10 µM [29]: 92.8%; inhibition of growth at 10 µM [30]: 5.51%; inhibition of growth at 10 µM [31]: 7.56%; inhibition of growth at 10 µM [32]: 6.62%; inhibition of growth at 10 µM [33]: 17.1%; inhibition of growth at 10 µM [34]: 19.9%; inhibition of growth at 10 µM [35]: 28.9%; inhibition of growth at 10 µM [36]: 9.89%; inhibition of growth at 10 µM [37]: 42.1%; inhibition of growth at 10 µM [38]: 29.9%; inhibition of growth at 10 µM [39]: 12.1%; inhibition of growth at 10 µM [40]: 26.9% |
| COc1ccc(NC(=O)CN2CCN(c3cc4c(cc3F)c(=O)c(C(=O)O)cn4C3CC3)CC2)cc1 | 3.22 | 8.75 | 0 | 6.72 | 5.67 | 16.8 | 39 | 0 | 5.92 | 0 | 17 | 0 | 13 | 13.8 | 5.64 | 0 | 3.36 | > 100 | 7.18 | 12.3 | inhibition of growth at 10 µM [21]: 2.72%; IC50 [22]: 24.8 µM; inhibition of growth at 10 µM [23]: 5.8%; inhibition of growth at 10 µM [24]: 2.63%; inhibition of growth at 10 µM [25]: 0%; inhibition of growth at 10 µM [26]: 0%; inhibition of growth at 10 µM [27]: 0%; inhibition of growth at 10 µM [28]: 0%; inhibition of growth at 10 µM [29]: 17.8%; inhibition of growth at 10 µM [30]: 7.04%; inhibition of growth at 10 µM [31]: 0%; inhibition of growth at 10 µM [32]: 0%; inhibition of growth at 10 µM [33]: 6.61%; inhibition of growth at 10 µM [34]: 11.6%; inhibition of growth at 10 µM [35]: 0%; inhibition of growth at 10 µM [36]: 4%; inhibition of growth at 10 µM [37]: 0.04%; inhibition of growth at 10 µM [38]: 20.9%; inhibition of growth at 10 µM [39]: 6.32%; inhibition of growth at 10 µM [40]: 9.38% |
| COc1cc(NC(=O)CN2CCN(c3cc4c(cc3F)c(=O)c(C(=O)O)cn4C3CC3)CC2)cc(OC)c1OC | 0 | 0 | 0 | 0 | 2.65 | 0 | 16.1 | 7.36 | 18.7 | 0 | 5.77 | 0 | 8.5 | 0 | 0 | 23.2 | 2.8 | > 100 | 0 | 0 | inhibition of growth at 10 µM [21]: 0%; IC50 [22]: > 100 µM; inhibition of growth at 10 µM [23]: 0%; inhibition of growth at 10 µM [24]: 0%; inhibition of growth at 10 µM [25]: 0%; inhibition of growth at 10 µM [26]: 0%; inhibition of growth at 10 µM [27]: 0%; inhibition of growth at 10 µM [28]: 0%; inhibition of growth at 10 µM [29]: 0%; inhibition of growth at 10 µM [30]: 0%; inhibition of growth at 10 µM [31]: 6.06%; inhibition of growth at 10 µM [32]: 0%; inhibition of growth at 10 µM [33]: 0%; inhibition of growth at 10 µM [34]: 14.5%; inhibition of growth at 10 µM [35]: 0%; inhibition of growth at 10 µM [36]: 2.78%; inhibition of growth at 10 µM [37]: 1.21%; inhibition of growth at 10 µM [38]: 15.2%; inhibition of growth at 10 µM [39]: 0%; inhibition of growth at 10 µM [40]: 0% |
